For 23 molecules, T/C results are on record in PubChem BioAssay AID248 (DTP/NCI, 2004).

Structures are written as SMILES. “And” between values parts separate entries of the source, which are not always exact repeats. Identical values can stand only once. Inconclusive results and toxic doses are left out.

For this experiment, the system named is L1210 leukemia ip in BDF1 mice, survival T/C. Put plainly: NCI In Vivo Anticancer Drug Screen. Data for tumor model L1210 Leukemia (intraperitoneal) in B6D2F1 (BDF1) mice. Conditions: endpoint: mean survival time, higher = longer survival. In outline: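 Value reflects the ratio of survival in compound-treated mice to survival in vehicle-treated controls, with both groups carrying the same transplanted tumor.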

The mark [1] stands for this setting: dose: 100.0 mg/kg/injection, schedule: Q01DX001 (ip), vehicle: saline.
Where [2] appears, read: dose: 200.0 mg/kg/injection, schedule: Q01DX001 (ip), vehicle: saline.
Setting [3] is: dose: 400.0 mg/kg/injection, schedule: Q01DX001 (ip), vehicle: saline.
[4] abbreviates: dose: 100.0 mg/kg/injection, schedule: Q01DX009 (ip), vehicle: saline with Tween-80.
Setting [5] is: dose: 100.0 mg/kg/injection, schedule: Q04DX003 (ip), vehicle: saline with Tween-80.
[6] abbreviates: dose: 200.0 mg/kg/injection, schedule: Q01DX009 (ip), vehicle: saline with Tween-80.
Where [7] appears, read: dose: 200.0 mg/kg/injection, schedule: Q04DX003 (ip), vehicle: saline with Tween-80.
The mark [8] stands for this setting: dose: 400.0 mg/kg/injection, schedule: Q01DX009 (ip), vehicle: saline with Tween-80.
Setting [9] is: dose: 400.0 mg/kg/injection, schedule: Q04DX003 (ip), vehicle: saline with Tween-80.
The mark [10] stands for this setting: dose: 100.0 mg/kg/injection, schedule: Q04DX003 (ip), vehicle: Klucel (hydroxypropylcellulose) (HPC).
Setting [11] is: dose: 200.0 mg/kg/injection, schedule: Q04DX003 (ip), vehicle: Klucel (hydroxypropylcellulose) (HPC).
Where [12] appears, read: dose: 100.0 mg/kg/injection, schedule: Q01DX009 (ip), vehicle: Klucel (hydroxypropylcellulose) (HPC).
Where [13] appears, read: dose: 200.0 mg/kg/injection, schedule: Q01DX009 (ip), vehicle: Klucel (hydroxypropylcellulose) (HPC).
Where [14] appears, read: dose: 100.0 mg/kg/injection, schedule: Q01DX009 (ip), vehicle: saline.
Setting [15] is: dose: 100.0 mg/kg/injection, schedule: Q04DX003 (ip), vehicle: saline.
Setting [16] is: dose: 200.0 mg/kg/injection, schedule: Q01DX009 (ip), vehicle: saline.
The mark [17] stands for this setting: dose: 200.0 mg/kg/injection, schedule: Q04DX003 (ip), vehicle: saline.
Where [18] appears, read: dose: 25.0 mg/kg/injection, schedule: Q01DX009 (ip), vehicle: saline.
Setting [19] is: dose: 50.0 mg/kg/injection, schedule: Q01DX009 (ip), vehicle: saline.

`C(=N\N1CCN(/N=C/c2cccc(OCc3ccccc3)c2)CC1)/c1cccc(OCc2ccccc2)c1`: the T/C by setting is: under setting [1], 96 % of control; under setting [2], 87 % of control; under setting [3], 90 % of control.
Take `CN(C)C(=O)c1cc(NC(=O)c2ccc(C(=O)Nc3cc(C(=O)N(C)C)cc(C4=NCCN4)c3)cc2)cc(C2=NCCN2)c1`: the T/C (dose: 7.5 mg/kg/injection, schedule: Q01DX015 (ip), vehicle: methylcellulose (MC)) was 98 % of control; the T/C (dose: 15.0 mg/kg/injection, schedule: Q01DX015 (ip), vehicle: methylcellulose (MC)) is 98 % of control and 108 % of control; the T/C (dose: 60.0 mg/kg/injection, schedule: Q01DX015 (ip), vehicle: methylcellulose (MC)) was 98 % of control.
As for `C/C(N)=N\O`, the T/C (dose: 100.0 mg/kg/injection, schedule: Q04DX002 (ip), vehicle: saline) was 105 % of control; the T/C (dose: 200.0 mg/kg/injection, schedule: Q04DX002 (ip), vehicle: saline) is 102 % of control; the T/C (dose: 400.0 mg/kg/injection, schedule: Q04DX002 (ip), vehicle: saline) is 105 % of control.
For `Cc1ccc(C)c(-n2c(-c3ccc(Br)cc3)csc2=NC(=O)c2ccccc2F)c1`, the T/C was 102 % of control under setting [4]; 101 % of control under setting [5]; 101 % of control under setting [6]; 98 % of control under setting [7]; 93 % of control under setting [8]; 102 % of control under setting [9].
Consider `CC(=O)c1cc(C)ccc1O`, for which the T/C was 93 % of control under setting [10] and 92 % of control under setting [11].
For `COc1ccccc1NC(=O)Nc1ccc(N(C)C)cc1`, the T/C is, setting by setting: under setting [4], 91 % of control; under setting [5], 86 % of control; under setting [6], 96 % of control; under setting [7], 94 % of control; under setting [8], 102 % of control; under setting [9], 95 % of control.
As to `Cn1cc[n+](C)c1`, the T/C is, setting by setting: under setting [1], 102 % of control; under setting [2], 97 % of control; under setting [3], 100 % of control.
For the molecule `NC(=O)c1ccccc1NC(=O)Nc1ccc(Cl)cc1`, the T/C under setting [12] is 98 % of control; the T/C under setting [13] was 96 % of control; the T/C (dose: 400.0 mg/kg/injection, schedule: Q01DX009 (ip), vehicle: Klucel (hydroxypropylcellulose) (HPC)) was 91 % of control.
For the molecule `CC1OCC2OC(C)OC(C(COC(c3ccccc3)(c3ccccc3)c3ccccc3)OS(C)(=O)=O)C2O1` (centres undefined), the T/C reads like this: under setting [14], 101 % of control; under setting [15], 102 % of control; under setting [16], 106 % of control; under setting [17], 98 % of control; (dose: 400.0 mg/kg/injection, schedule: Q01DX009 (ip), vehicle: saline) 88 % of control; (dose: 400.0 mg/kg/injection, schedule: Q04DX003 (ip), vehicle: saline) 93 % of control.
Turning to `O=C(O)c1cccc(Br)c1.[Ni]`, the T/C by setting is: (dose: 25.0 mg/kg/injection, schedule: Q04DX002 (ip), vehicle: Klucel (hydroxypropylcellulose) (HPC)) 100 % of control; (dose: 50.0 mg/kg/injection, schedule: Q04DX002 (ip), vehicle: Klucel (hydroxypropylcellulose) (HPC)) 106 % of control.
`O=S(=O)(F)/C=C\c1ccccc1`: the T/C is, setting by setting: (dose: 25.0 mg/kg/injection, schedule: Q01DX009 (ip), vehicle: acetone) 92 % of control; (dose: 100.0 mg/kg/injection, schedule: Q01DX001 (ip), vehicle: acetone) 95 % of control; (dose: 200.0 mg/kg/injection, schedule: Q01DX001 (ip), vehicle: acetone) 104 % of control.
Turning to `Nc1ncnc2c1c(C1=NCCN1)cn2C1OC(CO)C(O)C1O` (centres undefined), the T/C under setting [18] is 179 % of control; the T/C under setting [19] is 155 % of control and 230 % of control; the T/C (dose: 200.0 mg/kg/injection, schedule: Q01DX005 (ip), vehicle: saline) is 105 % of control.
`Cc1ccc(S(=O)(=O)N(CCCc2c(C)nc(N)[nH]c2=O)Cc2ccc([N+](=O)[O-])cc2)cc1`: the T/C is, setting by setting: (dose: 75.0 mg/kg/injection, schedule: Q01DX001 (ip), vehicle: Klucel (hydroxypropylcellulose) (HPC)) 102 % of control; (dose: 150.0 mg/kg/injection, schedule: Q01DX001 (ip), vehicle: Klucel (hydroxypropylcellulose) (HPC)) 97 % of control; (dose: 300.0 mg/kg/injection, schedule: Q01DX001 (ip), vehicle: Klucel (hydroxypropylcellulose) (HPC)) 103 % of control.
`OCC1OC(n2ncc3nccnc32)C(O)C1O` (centres undefined): the T/C runs as follows: (dose: 50.0 mg/kg/injection, schedule: Q01DX005 (ip), vehicle: other) 105 % of control; (dose: 100.0 mg/kg/injection, schedule: Q01DX005 (ip), vehicle: other) 105 % of control; (dose: 200.0 mg/kg/injection, schedule: Q01DX005 (ip), vehicle: other) 91 % of control.
`CCCCCCC(CCCCCC)CC1CCCC1`: the T/C (dose: 50.0 mg/kg/injection, schedule: Q04DX002 (sc), vehicle: olive oil, sesame oil, peanut oil) was 103 % of control; the T/C (dose: 100.0 mg/kg/injection, schedule: Q04DX002 (sc), vehicle: olive oil, sesame oil, peanut oil) is 97 % of control; the T/C (dose: 200.0 mg/kg/injection, schedule: Q04DX002 (sc), vehicle: olive oil, sesame oil, peanut oil) was 97 % of control.
With `CCN(CC)CC(=O)NC(CCN(C)C)(c1cccc2ccccc12)C(C)C` (centres undefined), the T/C is 94 % of control under setting [19]; 112 % of control under setting [14]; 105 % of control under setting [15]; 100 % of control under setting [16]; 105 % of control under setting [17].
In the case of `Cc1[nH]c2ccc([N+](=O)[O-])cc2c(=O)c1[N+](=O)[O-]` (tested in a mixture with another compound), the T/C was 94 % of control (dose: 50.0 mg/kg/injection, schedule: Q01DX009 (ip), vehicle: Klucel (hydroxypropylcellulose) (HPC)); 87 % of control under setting [12]; 105 % of control under setting [13].
Take `CON(C)S(=O)(=O)c1ccc([N+](=O)[O-])cc1`: the T/C was 102 % of control (dose: 100.0 mg/kg/injection, schedule: Q01DX001 (ip), vehicle: Klucel (hydroxypropylcellulose) (HPC)) and 98 % of control (dose: 200.0 mg/kg/injection, schedule: Q01DX001 (ip), vehicle: Klucel (hydroxypropylcellulose) (HPC)).
For `CC(C)C(=O)[O][Sn]([CH2]c1ccccc1)([CH2]c1ccccc1)[CH2]c1ccccc1`, the T/C under setting [5] is 88 % of control.
Regarding `c1cc(-c2ccc(C3=NCCN3)cc2)ccc1C1=NCCN1`, the T/C by setting is: (dose: 15.0 mg/kg/injection, schedule: Q01DX Z (ip), vehicle: saline) 104 % of control; (dose: 30.0 mg/kg/injection, schedule: Q01DX Z (ip), vehicle: saline) 104 % of control; (dose: 60.0 mg/kg/injection, schedule: Q01DX Z (ip), vehicle: saline) 87 % of control.
With `CCOP(=O)(NC12CC3CC(CC(C3)C1)C2)OCC`, the T/C by setting is: under setting [12], 97 % of control; under setting [10], 93 % of control; under setting [13], 94 % of control; under setting [11], 98 % of control; (dose: 400.0 mg/kg/injection, schedule: Q04DX003 (ip), vehicle: Klucel (hydroxypropylcellulose) (HPC)) 90 % of control.
Turning to `CN(C)/C=N\c1ncnc2c1c(C#N)cn2C1OC(CO)C(O)C1O` (centres undefined), the T/C was 92 % of control (dose: 6.25 mg/kg/injection, schedule: Q01DX009 (ip), vehicle: saline); 109 % of control (dose: 12.5 mg/kg/injection, schedule: Q01DX005 (ip), vehicle: saline); 115 % of control (dose: 12.5 mg/kg/injection, schedule: Q01DX009 (ip), vehicle: saline); 101 % of control (dose: 25.0 mg/kg/injection, schedule: Q01DX005 (ip), vehicle: saline); 117 % of control under setting [18].
In the case of `O=S(=O)(O)c1ccc2c(N=Nc3ccc(S(=O)(=O)N(CCCl)CCCl)cc3)c(O)c(S(=O)(=O)O)cc2c1`, the T/C reads like this: (dose: 50.0 mg/kg/injection, schedule: Q04DX003 (ip), vehicle: Klucel (hydroxypropylcellulose) (HPC)) 106 % of control; under setting [10], 90 % of control; under setting [11], 93 % of control.
